Measurements from PubChem BioAssay AID1845215 (Molecular Pharmacology Branch, DTP, NCI, 2023).

Tested on: SW 1271 complex tumor spheroid viability
Assay: Anticancer human tumor SW 1271 cell line growth inhibition;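 further: spheroids exposed to agents for seven days before readout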;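 on viability, T/C: percent of DMSO vehicle control luminescence so 100% = vehicle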
Conditions: for IC50: curve of first compound; for viability, T/C: stronger effect = lower value
Summary of the method: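 Complex tumor spheroids combined malignant cells with endothelial cells and mesenchymal stem cells. DNA-damaging drugs and DNA repair inhibitors were tested alone and in combination, at half-log dilutions down from clinical Cmax (top 10 microM if Cmax unknown), 0.25% DMSO final.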

Cc1sc2c(c1C)C(c1ccc(Cl)cc1)=NC(CC(=O)Nc1ccc(O)cc1)c1nnc(C)n1-2 (stereo not given) + Cn1nnc2c(C(N)=O)ncn2c1=O showed an IC50 (second compound 1 µM) of 69 nM, an IC50 (second compound 3.16 µM) of 85.4 nM and an IC50 (second compound 10 µM) of 77.9 nM. For the same molecule, the IC50 (second compound 31.6 µM) was 70.1 nM, the IC50 (second compound 100 µM) was 54.2 nM and the viability, T/C (second compound 1 µM, first compound 0.00949 µM) was 118%. The viability, T/C (second compound 1 µM, first compound 0.03 µM) was 100%, the viability, T/C (second compound 1 µM, first compound 0.0949 µM) was 30.9% and the viability, T/C (second compound 1 µM, first compound 0.3 µM) was 3.27%. It also gave a viability, T/C (second compound 1 µM, first compound 0.949 µM) of 1.29%, a viability, T/C (second compound 1 µM, first compound 3 µM) of 1.13% and a viability, T/C (second compound 3.16 µM, first compound 0.00949 µM) of 107%. The viability, T/C (second compound 3.16 µM, first compound 0.03 µM) was 110%, the viability, T/C (second compound 3.16 µM, first compound 0.0949 µM) was 44.2% and the viability, T/C (second compound 3.16 µM, first compound 0.3 µM) was 2.74%. For the same molecule, the viability, T/C (second compound 3.16 µM, first compound 0.949 µM) was 1.12%, the viability, T/C (second compound 3.16 µM, first compound 3 µM) was 1.25% and the viability, T/C (second compound 10 µM, first compound 0.00949 µM) was 116%. It also gave a viability, T/C (second compound 10 µM, first compound 0.03 µM) of 110%, a viability, T/C (second compound 10 µM, first compound 0.0949 µM) of 37.5% and a viability, T/C (second compound 10 µM, first compound 0.3 µM) of 3.68%. It also gave a viability, T/C (second compound 10 µM, first compound 0.949 µM) of 1.21%, a viability, T/C (second compound 10 µM, first compound 3 µM) of 1.48% and a viability, T/C (second compound 31.6 µM, first compound 0.00949 µM) of 104%. The viability, T/C (second compound 31.6 µM, first compound 0.03 µM) was 96.5%, the viability, T/C (second compound 31.6 µM, first compound 0.0949 µM) was 33.5% and the viability, T/C (second compound 31.6 µM, first compound 0.3 µM) was 3.27%. The viability, T/C (second compound 31.6 µM, first compound 0.949 µM) was 1.04%, the viability, T/C (second compound 31.6 µM, first compound 3 µM) was 0.93% and the viability, T/C (second compound 100 µM, first compound 0.00949 µM) was 96.8%. It also gave a viability, T/C (second compound 100 µM, first compound 0.03 µM) of 77.6%, a viability, T/C (second compound 100 µM, first compound 0.0949 µM) of 24% and a viability, T/C (second compound 100 µM, first compound 0.3 µM) of 2.27%. The viability, T/C (second compound 100 µM, first compound 0.949 µM) was 1.7% and the viability, T/C (second compound 100 µM, first compound 3 µM) was 0.96%.
In the case of CC1COCCN1c1cc(-c2ccnn2C)c2ccnc(-c3ccn[nH]3)c2n1 (stereo not given) + Cn1nnc2c(C(N)=O)ncn2c1=O, the IC50 (second compound 1 µM) is reported as 67.3 nM, the IC50 (second compound 3.16 µM) is reported as 70.1 nM and the IC50 (second compound 10 µM) is reported as 67.8 nM. For the same molecule, the IC50 (second compound 31.6 µM) was 38.2 nM, the IC50 (second compound 100 µM) was under 31.6 nM and the viability, T/C (second compound 1 µM, first compound 0.0316 µM) was 71.4%. It also gave a viability, T/C (second compound 1 µM, first compound 0.1 µM) of 38.7%, a viability, T/C (second compound 1 µM, first compound 0.316 µM) of 15.1% and a viability, T/C (second compound 1 µM, first compound 1 µM) of 6.03%. For the same molecule, the viability, T/C (second compound 1 µM, first compound 3.16 µM) was 3.67%, the viability, T/C (second compound 1 µM, first compound 10 µM) was 3.45% and the viability, T/C (second compound 3.16 µM, first compound 0.0316 µM) was 76.6%. For the same molecule, the viability, T/C (second compound 3.16 µM, first compound 0.1 µM) was 38.2%, the viability, T/C (second compound 3.16 µM, first compound 0.316 µM) was 11.3% and the viability, T/C (second compound 3.16 µM, first compound 1 µM) was 5.45%. It also gave a viability, T/C (second compound 3.16 µM, first compound 3.16 µM) of 3.38%, a viability, T/C (second compound 3.16 µM, first compound 10 µM) of 2.94% and a viability, T/C (second compound 10 µM, first compound 0.0316 µM) of 73.8%. It also gave a viability, T/C (second compound 10 µM, first compound 0.1 µM) of 37.9%, a viability, T/C (second compound 10 µM, first compound 0.316 µM) of 12.3% and a viability, T/C (second compound 10 µM, first compound 1 µM) of 5.29%. For the same molecule, the viability, T/C (second compound 10 µM, first compound 3.16 µM) was 2.98%, the viability, T/C (second compound 10 µM, first compound 10 µM) was 3.83% and the viability, T/C (second compound 31.6 µM, first compound 0.0316 µM) was 55.4%. For the same molecule, the viability, T/C (second compound 31.6 µM, first compound 0.1 µM) was 23.2%, the viability, T/C (second compound 31.6 µM, first compound 0.316 µM) was 9.1% and the viability, T/C (second compound 31.6 µM, first compound 1 µM) was 4.96%. It also gave a viability, T/C (second compound 31.6 µM, first compound 3.16 µM) of 3.48%, a viability, T/C (second compound 31.6 µM, first compound 10 µM) of 3.25% and a viability, T/C (second compound 100 µM, first compound 0.0316 µM) of 33.5%. It also gave a viability, T/C (second compound 100 µM, first compound 0.1 µM) of 12.6%, a viability, T/C (second compound 100 µM, first compound 0.316 µM) of 6.3% and a viability, T/C (second compound 100 µM, first compound 1 µM) of 3.95%. It also gave a viability, T/C (second compound 100 µM, first compound 3.16 µM) of 3.48% and a viability, T/C (second compound 100 µM, first compound 10 µM) of 2.85%.
